Experimental data taken from patent US20090137034A1, “METHODS FOR PERFUSION AND PLATING OF PRIMARY HEPATOCYTES AND A MEDIUM THEREFORE” (MASSACHUSETTS INSTITUTE OF TECHNOLOGY, priority 2002, published 2009).

Key:
[1] = tested on: activated macrophages; conditions: stated as an observation, no source given; cited from earlier work
[2] = tested on: CYP 1A1; test: CYP 1A1 inducibility/P450 function in primary hepatocytes in collagen sandwich culture (EROD assay, 3-MC induction); format: cell-based; conditions: mechanism under investigation
Experimental: To study the effect of different compounds on the function of hepatocyte function and phenotype, hepatocytes were isolated according to techniques well known in the art and cultured in a collagen sandwich configuration. Hepatocytes were induced with the addition of 2 nM 3-methylcholanthrene (3-MC). CYP 1A1 was measured using the EROD assay as described in Pearce et al., 1996. Albumin secretion was measured using ELISA, as described in Dunn et al., 1991. Western blot analysis was performed using techniques well known in the art, using an antibody to CYP1A1.

P450 function [2]: protection of P450 function
Structure (SMILES): N[C@H]1C(O)O[C@H](CO)[C@@H](O)[C@@H]1O (some centres unmarked) [glucosamine]
NO synthesis [1]: inhibits NO synthesis
